The source of these data is patent publication US20240351981A1, “NOVEL BISMALEIMIDE COMPOUNDS HAVING IMPROVED SOLUBILITY AND THEIR USE IN CURABLE COMPOSITIONS” (Evonik Operations GmbH, priority 2021, published 2024).

This data set in a line: Solubility of bismaleimides in organic solvents (saturated solution, gravimetric). It counts as physicochemical. The conditions noted are these: in comparison to other aliphatic bismaleimides. The method, then: The solubility of compounds in the present invention is determined as follows: • 10 g of a sample are weighed into a 100 ml conical flask. 50 ml of a solvent are added to the flask and the mixture is stirred with magnetic bar for 1 h at 25° C. to assure the formation of a saturated solution. If the entire sample is dissolved, additional portion of the sample should be added and the mixture should be stirred further for 1 h. In the end, a portion of undissolved material should be clearly seen at the bottom of the flask. After that, the supematant is filtered through a folded filter. Some 15 g of the filtrate are weighed into a tared round-bottom flask, and the solvent is evaporated to dryness on a rotary evaporator at 90° C. under reduced pressure. Finally, the flask is dried in a vacuum drying cabinet at 120° C. for 2 h under reduced pressure, cooled down to room temperature in a desiccator and weighed.
The solubility value is then calculated as:
The solubility of the example and comparative examples was determined as follows: • 10 g of a sample were weighed into a 100 ml conical flask. 50 ml of a solvent were added to the flask and the mixture was stirred with magnetic bar for 1 h at 25° C. to assure the formation of a saturated solution. If the entire sample was dissolved, additional portion of the sample should be added and the mixture should be stirred further for 1 h. […]

Take `CC1CC(C(CN2C(=O)C=CC2=O)CN2C(=O)C=CC2=O)CC(C)(C)C1` (stereo not shown) [2-(3,3,5-trimethylcyclohexyl)propane-1,3-bismaleimide]: the “Solubility in different organic solvents (in words)” value is given as “highly soluble”.
